This assay relates to PBMC (T cell proliferation). The experiment in a line: T cell proliferation assay, PHA-stimulated human PBMC (BrdU ELISA). It is filed as cell-based. A digest of the protocol: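 Healthy-donor human PBMC, Ficoll-isolated, seeded 1×10^5 cells/well in RPMI1640 with 10% dialyzed FCS, stimulated with 2 μg/ml PHA alongside test compound. Proliferation read after 48 hours by BrdU ELISA.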

Where [1] appears, read: human PBMC, 2 μg/ml PHA, 48 hours, BrdU, read-out: D: IC50 (Tcell proliferation).
The mark [2] stands for this setting: PHA-stimulated human PBMC, 48 hours, BrdU, column D, activity classes 1-4, read-out: IC50 (Tcell proliferation).

Like-named read-outs stand apart in the source and are kept apart here.

These results are taken from patent US8592456B2 (4SC Discovery GmbH, priority 2011, dated 2013).

In the case of `CNC(=O)c1c(-c2ccccc2Cl)noc1-c1cnn(-c2cccc(Cl)c2)c1C(F)(F)F` [Example B-63, 3-(2-chlorophenyl)-5-(1-(3-chlorophenyl)-5-(trifluoromethyl)-1H-pyrazol-4-yl)-N-methylisoxazole-4-carboxamide], the IC50 under setting [1] fell in the range of 100 to 1000 nM.

Consider `O=CNc1c(-c2c(F)cccc2Cl)noc1-c1cnn(-c2cccc(Cl)c2)c1C(F)(F)F` [Example B-48, N-(3-(2-chloro-6-fluorophenyl)-5-(1-(3-chlorophenyl)-5-(trifluoromethyl)-1H-pyrazol-4-yl)isoxazol-4-yl)formamide], for which, under setting [1], the IC50 lay within 1000 to 10000 nM.

On to `CCOC(=O)c1c(-c2ccncc2F)noc1-c1cnn(-c2cccc(NC(C)=O)c2)c1C(F)(F)F` [Example B-6, ethyl 5-(1-(3-acetamidophenyl)-5-(trifluoromethyl)-1H-pyrazol-4-yl)-3-(3-fluoropyridin-4-yl)isoxazole-4-carboxylate], for which, under setting [1], the IC50 lay within 100 to 1000 nM.

On to `Cc1nnc(-c2c(-c3c(F)cccc3Cl)noc2-c2cnn(-c3ccccc3F)c2C(F)(F)F)o1` [Example I-11, 2-(3-(2-chloro-6-fluorophenyl)-5-(1-(2-fluorophenyl)-5-(trifluoromethyl)-1H-pyrazol-4-yl)isoxazol-4-yl)-5-methyl-1,3,4-oxadiazole], for which the IC50 under setting [2] was in the range of 100 to 1000 nM.

As to `CC(C)OC(=O)c1c(-c2c(F)cccc2Cl)noc1-c1cnn(-c2cccnc2)c1C(F)(F)F` [Example B-61, isopropyl 3-(2-chloro-6-fluorophenyl)-5-(1-(pyridin-3-yl)-5-(trifluoromethyl)-1H-pyrazol-4-yl)isoxazole-4-carboxylate], under setting [1], the IC50 lay in the range of 10 to 100 nM.

As to `CC(C)NS(=O)(=O)c1cccc(-n2ncc(-c3onc(-c4c(F)cccc4Cl)c3C(=O)OC(C)C)c2C(F)(F)F)c1` [Example B-79, isopropyl 3-(2-chloro-6-fluorophenyl)-5-(1-(3-(N-isopropylsulfamoyl)phenyl)-5-(trifluoromethyl)-1H-pyrazol-4-yl)isoxazole-4-carboxylate], the IC50 under setting [1] is 100 to 1000 nM.

With `CCOC(=O)c1c(-c2c(F)cccc2Cl)noc1-c1cnn(-c2ccccc2[N+](=O)[O-])c1C(F)(F)F` [Example B-95, 3-(2-chloro-6-fluorophenyl)-5-(1-(2-nitrophenyl)-5-(trifluoromethyl)-1H-pyrazol-4-yl)isoxazole-4-carboxylate], under setting [1], the IC50 fell in the range of 100 to 1000 nM.

Take `COC(=O)c1c(-c2c(F)cccc2Cl)noc1-c1cnn(-c2c(F)c(F)cc(F)c2F)c1C(F)(F)F` [Example 47, methyl 3-(2-chloro-6-fluorophenyl)-5-(1-(2,3,5,6-tetrafluorophenyl)-5-(trifluoromethyl)-1H-pyrazol-4-yl)isoxale-4-carboxylate]: the IC50 under setting [1] was 100 to 1000 nM.

For `Fc1cccc(Cl)c1-c1noc(-c2cnn(-c3ccccn3)c2C(F)(F)F)c1-c1nnco1` [IB-25, 2-(3-(2-chloro-6-fluorophenyl)-5-(1-(pyridin-2-yl)-5-(trifluoromethyl)-1H-pyrazol-4-yl)isoxazol-4-yl)-1,3,4-oxadiazole], the IC50 under setting [2] was 10 to 100 nM.

For the compound `Fc1ccccc1-n1ncc(-c2onc(-c3c(F)cccc3Cl)c2-c2nnco2)c1C(F)(F)F` [Example I-15, 2-(3-(2-chloro-6-fluorophenyl)-5-(1-(2-fluorophenyl)-5-(trifluoromethyl)-1H-pyrazol-4-yl)isoxazol-4-yl)-1,3,4-oxadiazole], the IC50 under setting [2] was in the range of 100 to 1000 nM.

As to `NC(=S)c1c(-c2c(F)cccc2Cl)noc1-c1cnn(-c2cccc(Cl)c2)c1C(F)(F)F` [Example 125, 3-(2-chloro-6-fluorophenyl)-5-(1-(3-chlorophenyl)-5-(trifluoromethyl)-1H-pyrazol-4-yl)isoxazole-4-carbothioamide], under setting [1], the IC50 was in the range of 1000 to 10000 nM.

As for `COC(=O)c1c(-c2c(F)cccc2Cl)noc1-c1cnn(-c2onc(-c3ccc(Cl)cc3)c2C(=O)OC)c1C(F)(F)F` [Example 131, methyl 3-(2-chloro-6-fluorophenyl)-5-{[1-(4-methoxycarbonyl-3-(4-chlorophenyl)isoxazol-5-yl)-5-trifluoromethyl-1H-pyrazol-4-yl]}-isoxazole-4-carboxylate], the IC50 under setting [1] lay within 1000 to 10000 nM.

For the compound `COC(=O)c1csc(-c2c(-c3c(F)cccc3Cl)noc2-c2cnn(-c3cccc(F)c3)c2C(F)(F)F)n1` [IB-2, methyl 2-{3-(2-chloro-6-fluorophenyl)-5-[1-(3-fluorophenyl)-5-(trifluoromethyl)-1H-pyrazol-4-yl]isoxazol-4-yl}-1,3-thiazole-4-carboxylate], under setting [2], the IC50 was in the range of 100 to 1000 nM.

For the compound `Fc1cccc(Cl)c1-c1noc(-c2cnn(-c3cccc(Cl)c3)c2C(F)(F)F)c1-c1ccoc1` [IB-7, 3-(2-chloro-6-fluorophenyl)-5-(1-(3-chlorophenyl)-5-(trifluoromethyl)-1H-pyrazol-4-yl)-4-(furan-3-yl)isoxazole], the IC50 under setting [2] is < 10 nM.

As for `COC(=O)c1c(-c2c(F)cccc2Cl)noc1-c1cnn(C(C)C)c1C(F)(F)F` [Example 66, methyl 3-(2-chloro-6-fluorophenyl)-5-(1-isopropyl-5-(trifluoromethyl)-1H-pyrazol-4-yl)isoxazole-4-carboxylate], the IC50 under setting [1] was in the range of 1000 to 10000 nM.

In the case of `O=C(c1c(-c2c(F)cccc2Cl)noc1-c1cnn(-c2cccnc2)c1C(F)(F)F)N1CCCO1` [Example B-54, (3-(2-chloro-6-fluorophenyl)-5-(1-(pyridin-3-yl)-5-(trifluoromethyl)-1H-pyrazol-4-yl)isoxazol-4-yl)(isoxazolidin-2-yl)methanone], the IC50 under setting [1] was in the range of 1000 to 10000 nM.

In the case of `O=C(Nc1c(-c2c(F)cccc2Cl)noc1-c1cnn(-c2cccc(F)c2)c1C(F)(F)F)C(F)(F)F` [Example B-22, N-(3-(2-chloro-6-fluorophenyl)-5-[1-(3-fluorophenyl)-5-(trifluoromethyl)-1H-pyrazol-4-yl]-1,2-oxazol-4-yl)-2,2,2-trifluoroacetamide], the IC50 under setting [1] is 1000 to 10000 nM.

On to `COC(=O)c1c(-c2c(F)cccc2Cl)noc1-c1cnn(-c2cccnc2)c1C(F)(F)F` [Example B-67, methyl 3-(2-chloro-6-fluorophenyl)-5-(1-(pyridin-3-yl)-5-(trifluoromethyl)-1H-pyrazol-4-yl)isoxazole-4-carboxylate], for which, under setting [1], the IC50 fell in the range of 10 to 100 nM.

Consider `NNC(=O)c1c(-c2cccc(F)c2)noc1-c1cnn(-c2cccc(F)c2)c1C(F)(F)F` [Example 134, 3-(3-fluorophenyl)-5-(1-(3-fluorophenyl)-5-(trifluoromethyl)-1H-pyrazol-4-yl)isoxazole-4-carbohydrazide], for which the IC50 under setting [1] fell in the range of 1000 to 10000 nM.

Regarding `Fc1cccc(Cl)c1-c1noc(-c2cnn(-c3ccccc3)c2C(F)(F)F)c1Br` [Example 145, 4-bromo-3-(2-chloro-6-fluorophenyl)-5-(1-phenyl-5-(trifluoromethyl)-1H-pyrazol-4-yl)isoxazole], the IC50 under setting [1] was 10 to 100 nM.

`CC(C)Cn1ncc(-c2onc(-c3c(F)cccc3Cl)c2-c2nnn[nH]2)c1C(F)(F)F` [Example I-1, 3-(2-chloro-6-fluorophenyl)-5-(1-isobutyl-5-(trifluoromethyl)-1H-pyrazol-4-yl)-4-(1H-tetrazol-5-yl)isoxazole]: under setting [2], the IC50 was in the range of 1000 to 10000 nM.

With `CC(=O)Nc1cccc(-n2ncc(-c3onc(-c4c(F)cccc4Cl)c3-c3nnc(C)s3)c2C(F)(F)F)c1` [IB-12, N-(3-(4-(3-(2-chloro-6-fluorophenyl)-4-(5-methyl-1,3,4-thiadiazol-2-yl)isoxazol-5-yl)-5-(trifluoromethyl)-1H-pyrazol-1-yl)phenyl)acetamide], the IC50 (Homo sapiens, 48 h, read-out: IC50 (Tcell proliferation)) was in the range of 1000 to 10000 nM.

Consider `COC(=O)c1c(-c2ccccc2)noc1-c1cnn(-c2cccc(Cl)c2)c1C(F)(F)F` [Example B-30, methyl 5-(1-(3-chlorophenyl)-5-(trifluoromethyl)-1H-pyrazol-4-yl)-3-phenylisoxazole-4-carboxylate], for which the IC50 under setting [1] was in the range of 100 to 1000 nM.

As to `Cc1nnc(-c2c(-c3c(F)cccc3Cl)noc2-c2cnn(-c3ccccn3)c2C(F)(F)F)s1` [IB-27, 3-(2-chloro-6-fluorophenyl)-4-(5-methyl-1,3,4-thiadiazol-2-yl)-5-(1-(pyridin-2-yl)-5-(trifluoromethyl)-1H-pyrazol-4-yl)isoxazole], under setting [2], the IC50 is 10 to 100 nM.

Turning to `O=C(c1c(-c2c(F)cccc2Cl)noc1-c1cnn(-c2cccc(Cl)c2)c1C(F)(F)F)N1CCOCC1` [Example B-35, (3-(2-chloro-6-fluorophenyl)-5-(1-(3-chlorophenyl)-5-(trifluoromethyl)-1H-pyrazol-4-yl)isoxazol-4-yl)(morpholino)methanone], under setting [1], the IC50 was 1000 to 10000 nM.

On to `Fc1ccc(-n2ncc(-c3onc(-c4c(F)cccc4Cl)c3Br)c2C(F)(F)F)cc1` [Example B-28, 4-bromo-3-(2-chloro-6-fluorophenyl)-5-(1-(4-fluorophenyl)-5-(trifluoromethyl)-1H-pyrazol-4-yl)isoxazole], for which, under setting [1], the IC50 fell in the range of 100 to 1000 nM.

For the compound `COC(=O)c1c(-c2c(Cl)cccc2Cl)noc1-c1cnn(-c2cccc(Cl)c2)c1C(F)(F)F` [Example B-75, methyl 5-(1-(3-chlorophenyl)-5-(trifluoromethyl)-1H-pyrazol-4-yl)-3-(2,6-dichlorophenyl)isoxazole-4-carboxylate], the IC50 under setting [1] was < 10 nM.

Turning to `CCOC(=O)c1c(-c2onc(-c3c(F)cccc3Cl)c2C(=O)OC)cnn1-c1ccccc1F` [Example 41, methyl 3-(2-chloro-6-phenyl)-5-(5-(ethoxycarbonyl)-1-(2-fluorophenyl)-1H-pyrazol-4-yl)isoxazole-4-carboxylate], the IC50 under setting [1] is 100 to 1000 nM.

For `CCOC(=O)c1c(-c2c(Cl)cccc2Cl)noc1-c1cnn(-c2cccc(Cl)c2)c1C(F)(F)F` [Example B-45, ethyl 5-(1-(3-chlorophenyl)-5-(trifluoromethyl)-1H-pyrazol-4-yl)-3-(2,6-dichlorophenyl)-isoxazole-4-carboxylate], under setting [1], the IC50 was < 10 nM.

Regarding `Cc1nnc(-c2c(-c3c(F)cccc3Cl)noc2-c2cnn(-c3ccccc3F)c2C(F)(F)F)s1` [Example I-12, 3-(2-chloro-6-fluorophenyl)-5-(1-(2-fluorophenyl)-5-(trifluoromethyl)-1H-pyrazol-4-yl)-4-(5-methyl-1,3,4-thiadiazol-2-yl)isoxazole], the IC50 under setting [2] fell in the range of 100 to 1000 nM.
